Assay results as given in ChEMBL document CHEMBL1201862, “PubChem BioAssay data set” (2004).
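48-hour exposure; five concentrations; linearly interpolated endpoints. Abbreviation: GI50, concentration required for 50% inhibition of growth.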 Calls of active or inactive are those of the source. Cut-off read from the data, not from the text of the source: active = GI50 up to about 1.1 µM and inactive = higher.

Key:
Assay in all cases: NCI anticancer screen, dose series, 48 h
NCI-H460 = system: NCI-H460
HOP-62 = system: HOP-62
UO-31 = system: UO-31
XF498 = system: XF498
HL-60 = system: HL-60
COLO 205 = system: COLO 205
HCC 2998 = system: HCC 2998
TK-10 = system: TK-10
SF-295 = system: SF-295
SR = system: SR
KM12 = system: KM12
HCT-15 = system: HCT-15
UACC-257 = system: UACC-257
CCRF-CEM = system: CCRF-CEM
MDA-MB-231 = system: MDA-MB-231
SK-MEL-5 = system: SK-MEL-5
PC-3 = system: PC-3
BT-549 = system: BT-549
Hs-578T = system: Hs-578T
MDA-N = system: MDA-N

| SMILES | GI50 (NCI-H460) | GI50 (HOP-62) | GI50 (UO-31) | GI50 (XF498) | GI50 (HL-60) | GI50 (COLO 205) | GI50 (HCC 2998) | GI50 (TK-10) | GI50 (SF-295) | GI50 (SR) | GI50 (KM12) | GI50 (HCT-15) [µM] | GI50 (UACC-257) | GI50 (CCRF-CEM) | GI50 (MDA-MB-231) | GI50 (SK-MEL-5) | GI50 (PC-3) | GI50 (BT-549) | GI50 (Hs-578T) | GI50 (MDA-N) |
| --- | --- | --- | --- | --- | --- | --- | --- | --- | --- | --- | --- | --- | --- | --- | --- | --- | --- | --- | --- | --- |
| CSCCOC(=O)C(=[N+]=[N-])c1ccc([N+](=O)[O-])cc1 | > 100 µM (inactive) | > 100 µM (inactive) | > 100 µM (inactive) | > 100 µM (inactive) | > 100 µM (inactive) | > 100 µM (inactive) | > 100 µM (inactive) | > 100 µM (inactive) | > 100 µM (inactive) | > 100 µM (inactive) | > 100 µM (inactive) | > 100 | > 100 µM (inactive) | > 100 µM (inactive) |  |  |  |  |  |  |
| COc1ccc(C(C)NNC(=O)c2cc[n+]([BH2-]C#N)cc2)cc1OC (centres undefined) | > 100 µM (inactive) | > 100 µM (inactive) | > 100 µM (inactive) |  | > 100 µM (inactive) | > 100 µM (inactive) | > 100 µM (inactive) | > 100 µM (inactive) | > 100 µM (inactive) | > 100 µM (inactive) | > 100 µM (inactive) | > 100 | > 100 µM (inactive) | > 100 µM (inactive) | > 100 µM (inactive) | > 100 µM (inactive) | > 100 µM (inactive) | > 100 µM (inactive) | > 100 µM (inactive) | > 100 µM (inactive) |
| CCc1nc(N)nc(C(=O)NCCNC(=O)c2nc(N)nc(CC)c2C)c1C | > 100 µM (inactive) | > 100 µM (inactive) | > 100 µM (inactive) | > 100 µM (inactive) | > 100 µM (inactive) |  | > 100 µM (inactive) | > 100 µM (inactive) | > 100 µM (inactive) |  | > 100 µM (inactive) | > 100 | > 100 µM (inactive) |  |  | > 100 µM (inactive) |  |  |  |  |
| CC(C)C(Nc1c2ccccc2[n+](C)c2ccccc12)C(=O)O (centres undefined) | > 100 µM (inactive) | > 100 µM (inactive) | > 100 µM (inactive) | > 100 µM (inactive) | 99.5 µM (inactive) | > 100 µM (inactive) | > 100 µM (inactive) | > 100 µM (inactive) | > 100 µM (inactive) | > 100 µM (inactive) | > 100 µM (inactive) | > 100 | > 100 µM (inactive) |  |  | > 100 µM (inactive) |  |  |  |  |
| COc1cccc([C@H]2C/C(=N\NC(=O)C(=O)N[C@@H](C)c3ccccc3)c3ccccc3N2)c1 | > 10 µM (inactive) | 4.51 µM (inactive) | 0.0378 µM (active) |  | > 10 µM (inactive) | 0.0167 µM (active) | 0.017 µM (active) | > 10 µM (inactive) | < 0.01 µM (active) | > 10 µM (inactive) | < 0.01 µM (active) | < 0.01 | 0.0361 µM (active) | 0.0188 µM (active) | 0.0923 µM (active) | < 0.01 µM (active) | 0.0263 µM (active) | > 10 µM (inactive) | 0.0237 µM (active) | < 0.01 µM (active) |
| O[C@H]1[C@H](O)[C@@H](Cn2nnc(-c3ccccc3)c2-c2ccccc2)OCO[C@@H]1Cn1nnc(-c2ccccc2)c1-c1ccccc1 | 3.67 µM (inactive) | 13.1 µM (inactive) | 4.19 µM (inactive) |  | 3.88 µM (inactive) | 4.99 µM (inactive) | 2.24 µM (inactive) | 5.14 µM (inactive) | 3.78 µM (inactive) | 2.04 µM (inactive) | 3.63 µM (inactive) | 3.1 | 4.32 µM (inactive) | 3.53 µM (inactive) | 6.47 µM (inactive) | 4.32 µM (inactive) | 2.68 µM (inactive) | 5.31 µM (inactive) | 6.85 µM (inactive) | 3.84 µM (inactive) |
| C1=C\SS/C=C\SS/C=C\SS/C=C\SS/1 | 22.9 µM (inactive) | 69.7 µM (inactive) | > 100 µM (inactive) |  | 24.9 µM (inactive) | > 100 µM (inactive) | > 100 µM (inactive) | > 100 µM (inactive) | 45.3 µM (inactive) | 54.1 µM (inactive) | > 100 µM (inactive) | 21.5 | 78.5 µM (inactive) | 10.2 µM (inactive) | > 100 µM (inactive) | 99.3 µM (inactive) | > 100 µM (inactive) | > 100 µM (inactive) | > 100 µM (inactive) | > 100 µM (inactive) |
| O=C(O)C12C3C4C1C1C2C3C1(Br)C41OCCO1 (centres undefined) | > 100 µM (inactive) | > 100 µM (inactive) | > 100 µM (inactive) | > 100 µM (inactive) | > 100 µM (inactive) | > 100 µM (inactive) | > 100 µM (inactive) | > 100 µM (inactive) | > 100 µM (inactive) |  | > 100 µM (inactive) |  | > 100 µM (inactive) | > 100 µM (inactive) |  | > 100 µM (inactive) |  |  |  |  |
